Assay: xn = mol fraction of the nth substance listed
Conditions: 100 kPa, Liquid; for viscosity: Falling or rolling sphere viscometry; for mass density: Vibrating tube method

OCC1CCCCC1 [cyclohexylmethanol] + CCCCCCCCCCCC
Conditions | mass density [kg/m3] | viscosity [mPa·s]
293.15 K, x2 = 0.1014 | 898.17 | 18.36
293.15 K, x2 = 0.1991 | 872.04 | 9.786
293.15 K, x2 = 0.299 | 849.06 | 6.177
293.15 K, x2 = 0.3997 | 828.81 | 4.307
293.15 K, x2 = 0.4992 | 811.3 | 3.223
293.15 K, x2 = 0.6005 | 795.57 | 2.542
293.15 K, x2 = 0.7008 | 781.83 | 2.087
293.15 K, x2 = 0.7986 | 769.9 | 1.809
293.15 K, x2 = 0.8996 | 758.73 | 1.594
298.15 K, x2 = 0.1014 | 894.59 | 14.59
298.15 K, x2 = 0.1991 | 868.46 | 7.99
298.15 K, x2 = 0.299 | 845.44 | 5.179
298.15 K, x2 = 0.3997 | 825.18 | 3.688
298.15 K, x2 = 0.4992 | 807.71 | 2.813
298.15 K, x2 = 0.6005 | 791.92 | 2.251
298.15 K, x2 = 0.7008 | 778.16 | 1.873
298.15 K, x2 = 0.7986 | 766.22 | 1.633
298.15 K, x2 = 0.8996 | 755.05 | 1.447
303.15 K, x2 = 0.1014 | 890.99 | 11.73
303.15 K, x2 = 0.1991 | 864.86 | 6.621
303.15 K, x2 = 0.299 | 841.79 | 4.403
303.15 K, x2 = 0.3997 | 821.5 | 3.197
303.15 K, x2 = 0.4992 | 804.02 | 2.479
303.15 K, x2 = 0.6005 | 788.23 | 2.01
303.15 K, x2 = 0.7008 | 774.47 | 1.69
303.15 K, x2 = 0.7986 | 762.53 | 1.481
303.15 K, x2 = 0.8996 | 751.37 | 1.321
308.15 K, x2 = 0.1014 | 887.35 | 9.573
308.15 K, x2 = 0.1991 | 861.23 | 5.545
308.15 K, x2 = 0.299 | 838.08 | 3.779
308.15 K, x2 = 0.3997 | 817.79 | 2.795
308.15 K, x2 = 0.4992 | 800.32 | 2.201
308.15 K, x2 = 0.6005 | 784.52 | 1.806
308.15 K, x2 = 0.7008 | 770.76 | 1.532
308.15 K, x2 = 0.7986 | 758.82 | 1.351
308.15 K, x2 = 0.8996 | 747.67 | 1.211
313.15 K, x2 = 0.1014 | 883.69 | 7.9
313.15 K, x2 = 0.1991 | 857.57 | 4.691
313.15 K, x2 = 0.299 | 834.37 | 3.271
313.15 K, x2 = 0.3997 | 814.07 | 2.461
313.15 K, x2 = 0.4992 | 796.59 | 1.966
313.15 K, x2 = 0.6005 | 780.79 | 1.631
313.15 K, x2 = 0.7008 | 767.03 | 1.395
313.15 K, x2 = 0.7986 | 755.09 | 1.237
313.15 K, x2 = 0.8996 | 743.96 | 1.115
318.15 K, x2 = 0.1014 | 879.99 | 6.588
318.15 K, x2 = 0.1991 | 853.91 | 4.005
318.15 K, x2 = 0.299 | 830.77 | 2.854
318.15 K, x2 = 0.3997 | 810.31 | 2.183
318.15 K, x2 = 0.4992 | 792.83 | 1.767
318.15 K, x2 = 0.6005 | 777.04 | 1.48
318.15 K, x2 = 0.7008 | 763.28 | 1.276
318.15 K, x2 = 0.7986 | 751.35 | 1.138
318.15 K, x2 = 0.8996 | 740.24 | 1.031
323.15 K, x2 = 0.1014 | 876.25 | 5.525
323.15 K, x2 = 0.1991 | 850.16 | 3.447
323.15 K, x2 = 0.299 | 827.01 | 2.507
323.15 K, x2 = 0.3997 | 806.53 | 1.947
323.15 K, x2 = 0.4992 | 789.05 | 1.594
323.15 K, x2 = 0.6005 | 773.26 | 1.348
323.15 K, x2 = 0.7008 | 759.51 | 1.171
323.15 K, x2 = 0.7986 | 747.58 | 1.05
323.15 K, x2 = 0.8996 | 736.5 | 0.957
328.15 K, x2 = 0.1014 | 872.47 | 4.696
328.15 K, x2 = 0.1991 | 846.36 | 2.99
328.15 K, x2 = 0.299 | 823.2 | 2.216
328.15 K, x2 = 0.3997 | 802.71 | 1.746
328.15 K, x2 = 0.4992 | 785.24 | 1.446
328.15 K, x2 = 0.6005 | 769.45 | 1.233
328.15 K, x2 = 0.7008 | 755.71 | 1.079
328.15 K, x2 = 0.7986 | 743.79 | 0.973
328.15 K, x2 = 0.8996 | 732.74 | 0.891
333.15 K, x2 = 0.1014 | 868.64 | 3.987
333.15 K, x2 = 0.1991 | 842.52 | 2.614
333.15 K, x2 = 0.299 | 819.35 | 1.972
333.15 K, x2 = 0.3997 | 798.87 | 1.574
333.15 K, x2 = 0.4992 | 781.41 | 1.318
333.15 K, x2 = 0.6005 | 765.62 | 1.132
333.15 K, x2 = 0.7008 | 751.89 | 0.997
333.15 K, x2 = 0.7986 | 739.98 | 0.904
333.15 K, x2 = 0.8996 | 728.97 | 0.832

From the NIST ThermoML archive (doi:10.1021/acs.jced.6b00688)
